Here are results for 11 compounds from US9012365B2, “Compatibility agents for herbicidal formulations comprising 2,4-(Dichlorophenoxy) acetic acid salts” (priority 2006, dated 2015).

Bounds are passed on as bounds.

Common to all, as to assay type: physicochemical
The nature of series [1]: Appearance of 10 g solution of (2.5 wt % ai 2,4-D DMA + tested chemical) after adding 40% AMS. The following applies: for 0 gram Appearance / Addition Weight of 40% AMS: System was cloud after adding / Addition Weight of 40% AMS: System was clear after adding: 0.13 wt % a.i. of tested chemical, 2.5 wt % ai 2,4-D DMA; for 0 gram Appearance: 0 gram 40% AMS; for Addition Weight of 40% AMS: System was cloud after adding / Addition Weight of 40% AMS: System was clear after adding: 10 g solution; for Appearance, added 40% AMS wt into 10 g (2.5% 2,4-D + 0.13% tested chemical in DI water): at 0 g AMS added, or at all additions (All); for Added 40% AMS wt into 10 g (2.5% 2,4-D + 0.13% tested chemical in DI water), hazy / Added 40% AMS wt into 10 g (2.5% 2,4-D + 0.13% tested chemical in DI water), still clear: Table of Example 1. Here is the method:
In this example, the appearance of a 10 g solution of (2.5 wt % ai 2,4-D DMA+tested chemical) was evaluated after adding 40% AMS

Experiment in series [2]: as above
The following applies: summary statement of the description.

Series [3] can be described thus: Solubility of tested chemical in DI water. Here is the method:
(§1) In example 1, the electrolyte tolerance of 6 chemicals with and without the presence of 2,4-D amine was evaluated in ammonium sulfate system.

Series [4] is described as follows: Solubility of tested chemical in 40% AMS (ammonium sulfate). Here is the method:
as §1

Series [5] is described as follows: Electrolyte tolerance: 40% AMS added into 10 g 0.13% tested chemical in DI water. The settings on record: for Appearance, added 40% AMS wt into 10 g 0.13% tested chemical in DI water: at 0 g AMS added, or at all additions (All); for Solubility / compatibility in water or AMS solution (in words): without 2,4-D amine; for Added 40% AMS wt into 10 g 0.13% tested chemical in DI water, hazy / Added 40% AMS wt into 10 g 0.13% tested chemical in DI water, still clear: no 2,4-D. Here is the method:
as §1

Series [6] in a line: Crystal formation of 2,4-D in 1000 ppm hard water + AMS after post-adding surfactant. The settings on record: for Appearance of sample: 0.069 g surfactant added to 3% 2,4-DMA (50%) + 90% water (1000 ppm hardness) + 7% AMS (40%), room temperature. From the text: FIG. 3 is a photograph illustrating the effect of various concentrations of cocoamine-2EO (“Coco-2”) and/or tallow-10EO (“Tallow-10”) on crystal formation of 2,4-D. (A) 0% Coco-2/0% Tallow-10. (B) 100% Coco-2/0% Tallow-10. (C) 45% Coco-2/55% Tallow-10. (D) 50% Coco-2/50% Tallow-10. (E) 55% Coco-2/45% Tallow-10.(F) 60% Coco-2/40% Tallow-10. (G) 0% Coco-2/100% Tallow-10.
In FIG. 3, sample (0:0) was 3% 2,4-DMA (50%)+90% water (1000 ppm hardness)+7% AMS (40%) and it readily formed crystals at room temperature.
The first sample, (0:0), on the left had no surfactant and it had about 15% crystal at the bottom. The rest of the samples had 0.069 g surfactant post-added to the first sample. […] Sample (0:100) was a little hazy with ˜5% crystal at bottom.

Regarding `CC(C)O` [Isopropyl alcohol], in series [1], the “0 gram Appearance” value was “Clear” and the “Addition Weight of 40% AMS: System was cloud after adding” value stood at 0.461 grams. Also, the “Suitability for increasing the solubility of 2,4-D non-amine salt (in words)” value in series [2] is reported as “ineffective”.

For the compound `CN1CCCC1=O` [Methyl-2-pyrrolidinone], in series [1], the “0 gram Appearance” value is “Clear”, the “Addition Weight of 40% AMS: System was clear after adding” value is 0.36 grams and the “Addition Weight of 40% AMS: System was cloud after adding” value is reported as 0.567 grams. Also, the “Suitability for increasing the solubility of 2,4-D non-amine salt (in words)” value in series [2] was “ineffective”.

Take `CCCCC(CC)COC(=O)CC(C(=O)OCC(CC)CCCC)S(=O)(=O)[O-].[Na+]` (stereo not shown) [Sodium dioctyl sulfonsuccinate]: in series [1], the “0 gram Appearance” value is given as “very cloudy”, the “Addition Weight of 40% AMS: System was clear after adding” value was “very cloudy” and the “Addition Weight of 40% AMS: System was cloud after adding” value stood at 0 grams. Further, the “Suitability for increasing the solubility of 2,4-D non-amine salt (in words)” value in series [2] was “ineffective”.

`CCCCCCCCO` [octanol]: the “Suitability for increasing the solubility of 2,4-D non-amine salt (in words)” value in series [2] is on record as “ineffective”.

On to Castor oil ethoxylate-10EO, for which, in series [3], the “Solubility of tested chemical in DI Water” value (from here on “Solubility … in DI Water”) is listed as less than 0.007%. For the same compound, the “Solubility of testes chemical in 40% AMS” value in series [4] is given as less than 0.007%. Further, in series [5], the “Appearance, added 40% AMS wt into 10 g 0.13% tested chemical in DI water” value is recorded as “All hazy” and the “Solubility / compatibility in water or AMS solution (in words)” value (shortened to “Solubility / compatibility”) is “little compatibility”. In series [1], the “0 gram Appearance” value is recorded as “Haze”; the “Addition Weight of 40% AMS: System was clear after adding” value was “Haze”; the “Addition Weight of 40% AMS: System was cloud after adding” value amounted to 0 grams; the “Appearance, added 40% AMS wt into 10 g (2.5% 2,4-D + 0.13% tested chemical in DI water)” value is reported as “All hazy”.

Consider Castor oil ethoxylate-36EO, for which, in series [3], the “Solubility … in DI Water” value is listed as greater than 20%. In addition, the “Solubility of testes chemical in 40% AMS” value in series [4] was less than 0.036%. Further, in series [5], the “Appearance, added 40% AMS wt into 10 g 0.13% tested chemical in DI water” value was “clear”; the “Added 40% AMS wt into 10 g 0.13% tested chemical in DI water, hazy” value is 3.74 hazy g; the “Added 40% AMS wt into 10 g 0.13% tested chemical in DI water, still clear” value is given as 3.57 g. In series [1], the “0 gram Appearance” value is listed as “Clear”; the “Addition Weight of 40% AMS: System was clear after adding” value was 1.726 grams; the “Addition Weight of 40% AMS: System was cloud after adding” value was determined as 2.141 grams; the “Added 40% AMS wt into 10 g (2.5% 2,4-D + 0.13% tested chemical in DI water), hazy” value came to 2.14 g. In addition, in series [1], the “Added 40% AMS wt into 10 g (2.5% 2,4-D + 0.13% tested chemical in DI water), still clear” value is given as 1.73 g and the “Appearance, added 40% AMS wt into 10 g (2.5% 2,4-D + 0.13% tested chemical in DI water)” value is given as “clear”. The “AMS electrolyte tolerated relative to 55EO castor oil ethoxylate” value in series [1] (in 2.5% 2,4-D DMA solution) is listed as 3 times.

Take Castor oil ethoxylate-55EO: the “Solubility … in DI Water” value in series [3] is reported as greater than 20%. Moreover, in series [5], the “Appearance, added 40% AMS wt into 10 g 0.13% tested chemical in DI water” value is “clear”; the “Added 40% AMS wt into 10 g 0.13% tested chemical in DI water, hazy” value worked out at 3.74 hazy g; the “Added 40% AMS wt into 10 g 0.13% tested chemical in DI water, still clear” value is given as 3.63 g. Besides, in series [1], the “0 gram Appearance” value is “Clear”; the “Addition Weight of 40% AMS: System was clear after adding” value stood at 0.476 grams; the “Addition Weight of 40% AMS: System was cloud after adding” value was determined as 0.554 grams; the “Added 40% AMS wt into 10 g (2.5% 2,4-D + 0.13% tested chemical in DI water), hazy” value stood at 0.55 g. Further, in series [1], the “Added 40% AMS wt into 10 g (2.5% 2,4-D + 0.13% tested chemical in DI water), still clear” value is reported as 0.48 g and the “Appearance, added 40% AMS wt into 10 g (2.5% 2,4-D + 0.13% tested chemical in DI water)” value is recorded as “clear”.

Cocoamine-2EO: the “Solubility … in DI Water” value in series [3] was less than 0.016%. Also, the “Solubility of testes chemical in 40% AMS” value in series [4] is less than 0.016%. For the same compound, in series [5], the “Appearance, added 40% AMS wt into 10 g 0.13% tested chemical in DI water” value is recorded as “All hazy” and the “Solubility / compatibility” value is “little compatibility”. In series [1], the “Compatibility in 2,4-D amine and AMS solution (in words)” value is on record as “very good compatibility”; the “0 gram Appearance” value is reported as “Clear”; the “Addition Weight of 40% AMS: System was clear after adding” value is recorded as 2.096 grams; the “Addition Weight of 40% AMS: System was cloud after adding” value is reported as 2.264 grams. Also, in series [1], the “Added 40% AMS wt into 10 g (2.5% 2,4-D + 0.13% tested chemical in DI water), hazy” value worked out at 2.26 g; the “Added 40% AMS wt into 10 g (2.5% 2,4-D + 0.13% tested chemical in DI water), still clear” value is reported as 2.1 g; the “Appearance, added 40% AMS wt into 10 g (2.5% 2,4-D + 0.13% tested chemical in DI water)” value is recorded as “clear”. The Appearance of sample entry in series [6] is listed as “hazy product without crystals”. Moreover, the Appearance of sample entry in series [6] (listed as Sample (100:0)) was “hazy sample with a little oily sediment at bottom”.

On to Hexyl glycoside, for which the “Solubility … in DI Water” value in series [3] is reported as “All clear”. Besides, the “Solubility of testes chemical in 40% AMS” value in series [4] was “All clear”. Besides, in series [5], the “Appearance, added 40% AMS wt into 10 g 0.13% tested chemical in DI water” value is listed as “All clear”; the “Solubility / compatibility” value was “excellent solubility in water and electrolyte tolerance”. In series [1], the “Compatibility in 2,4-D amine and AMS solution (in words)” value is given as “poor compatibility agent”; the “0 gram Appearance” value was “Clear”; the “Addition Weight of 40% AMS: System was clear after adding” value was determined as 0.179 grams; the “Addition Weight of 40% AMS: System was cloud after adding” value was 0.359 grams. In addition, in series [1], the “Added 40% AMS wt into 10 g (2.5% 2,4-D + 0.13% tested chemical in DI water), hazy” value was found to be 0.36 g hazy; the “Added 40% AMS wt into 10 g (2.5% 2,4-D + 0.13% tested chemical in DI water), still clear” value amounted to 0.18 g; the “Appearance, added 40% AMS wt into 10 g (2.5% 2,4-D + 0.13% tested chemical in DI water)” value was “clear”.

On to Tallowamine-10EO, for which, in series [1], the “0 gram Appearance” value was “Clear”, the “Addition Weight of 40% AMS: System was clear after adding” value was found to be 1.503 grams and the “Addition Weight of 40% AMS: System was cloud after adding” value was determined as 1.717 grams. Also, in series [6], the Appearance of sample result was “dissolved most crystals”. Besides, the Appearance of sample result in series [6] (listed as Sample (0:100)) is on record as “a little hazy”. In addition, in series [6] (0.069 g surfactant post-added to sample (0:0)), the Crystal at bottom is given as roughly 5%.

Take ethoxylated (2EO) cocoamide oxides: the “Suitability for increasing the solubility of 2,4-D non-amine salt (in words)” value in series [2] is “ineffective”.
